# Key:
# dog [1] = conditions: Sub-acute repeat dose toxicity, beagle, Oral, Gavage/Intubation, dose end: 14 day, group: systemic
# rat [2] = conditions: Subchronic oral toxicity in rodents, sprague dawley, Gavage/Intubation, dose end: 90 day, group: systemic
# rat [3] = conditions: Fertility (Segment I); sprague dawley; Oral; Gavage/Intubation; dose end: 1 generation; group: parental; systemic / in life observation / body weight / body weight gain + systemic / in life observation / clinical signs / anogenital staining
# dog [4] = conditions: Subchronic oral toxicity in nonrodent, beagle, Gavage/Intubation, dose end: 92 day, group: systemic
# rat [5] = conditions: Sub-acute repeat dose toxicity, sprague dawley, Oral, Gavage/Intubation, dose end: 14 day, group: systemic
# rat [6] = conditions: Fertility (Segment I), sprague dawley, Oral, Gavage/Intubation, dose end: 1 generation, group: parental
# rabbit = conditions: Sub-acute repeat dose toxicity, new zealand white, Oral, Gavage/Intubation, dose end: 5 day, group: systemic
# mouse [7] = conditions: Multigenerational reproductive toxicity study; other; Oral; Feed; dose end: 1 generation; group: reproductive; reproductive / offspring survival early / litter size / litter size
# mouse [8] = conditions: Carcinogenicity, b6c3f1, Oral, Feed, dose end: 80 week, group: systemic
# rat [9] = conditions: Carcinogenicity, other, Oral, Feed, dose end: 80 week, group: systemic
# rat [10] = conditions: Developmental neurotoxicity study; Oral; Feed; dose end: 90 PND; group: cannot be grouped; systemic / organ weight / liver / relative to body weight + systemic / pathology microscopic / liver / vacuolization
# rat [11] = conditions: Subchronic oral toxicity in rodents, other, Feed, dose end: 6 week, group: systemic
# rat [12] = conditions: Carcinogenicity; fischer; Oral; Feed; dose end: 105 week; group: systemic; systemic / in life observation / clinical signs / convulsions + systemic / in life observation / clinical signs / nervousness + systemic / …
# rat [13] = conditions: Subchronic oral toxicity in rodents, fischer, Feed, dose end: 8 week, group: systemic
# mouse [14] = conditions: Subchronic oral toxicity in rodents, b6c3f1, Feed, dose end: 6 week, group: systemic, systemic / in life observation / mortality / mortality
# [15] = systemic / clinical chemistry / [other] / [other] + systemic / clinical chemistry / hepatic mixed function oxidase (mfo) assay / hepatic …
# [16] = systemic / in life observation / clinical signs / abnormal feces
# [17] = systemic / in life observation / clinical signs / salivation + systemic / pathology microscopic / bone / proliferation
# [18] = systemic / in life observation / clinical signs / salivation + systemic / pathology microscopic / bone / proliferation + systemic / …
# [19] = systemic / clinical chemistry / albumin / albumin + systemic / in life observation / clinical signs / erythema + systemic / clinical …
# [20] = systemic / clinical chemistry / [other] / [other] + systemic / clinical chemistry / cytochrome p450, nos / cytochrome p450, nos + systemic…
# [21] = systemic / in life observation / clinical signs / anogenital staining + systemic / in life observation / clinical signs / salivation
# [22] = systemic / in life observation / body weight / body weight + systemic / in life observation / clinical signs / abnormal feces + systemic / …
# [23] = systemic / in life observation / mortality / mortality + systemic / in life observation / body weight / body weight + systemic / in life …
# [24] = systemic / in life observation / clinical signs / excitation + systemic / in life observation / clinical signs / tremors
# [25] = systemic / in life observation / clinical signs / excitation + systemic / in life observation / clinical signs / tremors + systemic / in …
# [26] = systemic / in life observation / body weight / body weight + systemic / in life observation / clinical signs / [other] + systemic / in life …
# [27] = systemic / in life observation / body weight / body weight
# [28] = systemic / in life observation / body weight / body weight + systemic / in life observation / mortality / mortality
# [29] = systemic / pathology microscopic / brain / necrosis + systemic / in life observation / body weight / body weight + systemic / in life …
smiles,measurement,setting,value
O=C(NO)C1(NS(=O)(=O)c2ccc(Oc3ccc(F)cc3)cc2)CCOCC1,LOAEL,dog [1]; [15],> 400 mg/kg/day
same,NOAEL,dog [1]; [15],≥ 400 mg/kg/day
same,LEL,dog [1]; [16],10 mg/kg/day
same,NEL,dog [1]; [16],< 10 mg/kg/day
same,LEL,rat [2]; [17],10 mg/kg/day
same,NEL,rat [2]; [17],< 10 mg/kg/day
same,LOAEL,rat [2]; [18],> 1000 mg/kg/day
same,NOAEL,rat [2]; [18],≥ 1000 mg/kg/day
same,LEL,rat [3],1000 mg/kg/day
same,LOAEL,rat [3],> 1000 mg/kg/day
same,NEL,rat [3],50 mg/kg/day
same,NOAEL,rat [3],≥ 1000 mg/kg/day
same,NEL,dog [4]; systemic / clinical chemistry / albumin / albumin + systemic / in life observation / clinical signs / erythema,10 mg/kg/day
same,LOAEL,dog [4]; [19],> 400 mg/kg/day
same,NOAEL,dog [4]; [19],≥ 400 mg/kg/day
same,LEL,dog [4]; systemic / in life observation / clinical signs / erythema + systemic / clinical chemistry / albumin / albumin + systemic / clinical …,100 mg/kg/day
same,LOAEL,rat [5]; [20],> 1000 mg/kg/day
same,NOAEL,rat [5]; [20],≥ 1000 mg/kg/day
same,LEL,rat [5]; systemic / in life observation / clinical signs / salivation,50 mg/kg/day
same,NEL,rat [5]; systemic / in life observation / clinical signs / salivation + systemic / in life observation / clinical signs / urine staining - perineum…,10 mg/kg/day
same,LEL,rat [6]; systemic / in life observation / clinical signs / anogenital staining,50 mg/kg/day
same,LOAEL,rat [6]; [21],> 1000 mg/kg/day
same,NEL,rat [6]; [21],10 mg/kg/day
same,NOAEL,rat [6]; [21],≥ 1000 mg/kg/day
same,LEL,rabbit; [22],60 mg/kg/day
same,NEL,rabbit; [22],< 60 mg/kg/day
same,LOAEL,rabbit; [23],> 600 mg/kg/day
same,NOAEL,rabbit; [23],≥ 600 mg/kg/day
ClC1=C(Cl)[C@]2(Cl)[C@@H]3[C@@H]4C[C@@H]([C@H]5O[C@@H]45)[C@@H]3[C@@]1(Cl)C2(Cl)Cl [Dieldrin],LEL,mouse [7],0.75 mg/kg/day
same,LOAEL,mouse [7],> 0.75 mg/kg/day
same,NEL,mouse [7],< 0.75 mg/kg/day
same,NOAEL,mouse [7],≥ 0.75 mg/kg/day
same,LOAEL,mouse [8]; [24],0.375 mg/kg/day
same,NOAEL,mouse [8]; [24],< 0.375 mg/kg/day
same,LEL,mouse [8]; [25],0.375 mg/kg/day
same,NEL,mouse [8]; [25],< 0.375 mg/kg/day
same,LEL,rat [9]; [26],1.45 mg/kg/day
same,NEL,rat [9]; [26],< 1.45 mg/kg/day
same,LOAEL,rat [9]; systemic / in life observation / clinical signs / convulsions,3.25 mg/kg/day
same,NOAEL,rat [9]; systemic / in life observation / clinical signs / convulsions + systemic / in life observation / body weight / body weight + systemic / in …,1.45 mg/kg/day
same,LEL,rat [10],0.00035 mg/kg/day
same,LOAEL,rat [10],> 0.00035 mg/kg/day
same,NEL,rat [10],< 0.00035 mg/kg/day
same,NOAEL,rat [10],≥ 0.00035 mg/kg/day
same,LEL,rat [11]; [27],2 mg/kg/day
same,NEL,rat [11]; [27],< 2 mg/kg/day
same,LOAEL,rat [11]; [28],> 16 mg/kg/day
same,NOAEL,rat [11]; [28],≥ 16 mg/kg/day
same,LEL,rat [12],2.5 mg/kg/day
same,LOAEL,rat [12],> 2.5 mg/kg/day
same,NEL,rat [12],0.5 mg/kg/day
same,NOAEL,rat [12],≥ 2.5 mg/kg/day
same,LOAEL,rat [13]; systemic / pathology microscopic / brain / necrosis,5 mg/kg/day
same,LEL,rat [13]; systemic / pathology microscopic / brain / necrosis + systemic / in life observation / body weight / body weight,5 mg/kg/day
same,NEL,rat [13]; [29],2.5 mg/kg/day
same,NOAEL,rat [13]; [29],2.5 mg/kg/day
same,LEL,mouse [14],3 mg/kg/day
same,LOAEL,mouse [14],> 6 mg/kg/day
same,NEL,mouse [14],1.5 mg/kg/day
same,NOAEL,mouse [14],≥ 6 mg/kg/day
